Legend:
[1] = tested on: MRC5 human fetal lung fibroblasts; assay: In vitro growth inhibition assay (SRB), MRC5; type: cell-based
Description: A2780 human ovarian carcinoma and MRC5 human fetal lung fibroblasts were obtained from the European Collection of Cell Cultures. Both cell lines were grown in Roswell Park Memorial Institute medium (RPMI-1640) supplemented with 10% of fetal calf serum, 1% of 2 mM glutamine and 1% penicillin/streptomycin. All cells were grown as adherent monolayers at 310 K in a 5% CO2-humidified atmosphere and passaged at ca. 70–80% confluency.
The antiproliferative activity of complexes 1–8 was determined in A2780 ovarian cancer cells and MRC5 fibroblasts. Briefly, 96-well plates were used to seed 5,000 cells per well. The plates were left to pre-incubate with drug-free medium at 310 K for 48 h before adding different concentrations of the compounds to be tested. A drug exposure period of 24 h was allowed. After this, supernatants were removed by suction and each well was washed with PBS. […]
Supplementary Table 10: Antiproliferative activity of complex 2 in A2780 ovarian cancer cells and normal MRC5 human fetal lung fibroblasts, when co-administered with different concentrations of sodium formate (0 and 2 mM). All the experiments were performed as duplicates of triplicates in independent experiments and the error bars were calculated as the standard deviation from the mean. […]

[2] = tested on: A2780 cells; assay: Induction of apoptosis (Annexin V-FITC/PI flow cytometry); type: cell-based, human; details: A2780, complex 2 and 2 mM sodium formate, 24 h
Description: Flow cytometry analysis of apoptosis in A2780 cells caused by exposure to complex 2 and sodium formate were carried out using the Annexin V-FITC Apoptosis Detection Kit (Sigma Aldrich) according to the manufacturer’s instructions. […] Cells were harvested using trypsin and stained using PI/Annexin V-FITC. After staining, cell pellets were analysed in a Becton Dickinson FACScan Flow Cytometer. For positive-apoptosis controls, A2780 cells were exposed for 2 h to staurosporine (1 μg ml^−1). Cells for apoptosis studies were used with no previous fixing procedure as to avoid nonspecific binding of the annexin V-FITC conjugate.

[3] = tested on: 9-ethylguanine; assay: Binding to model nucleobase 9-ethylguanine by 1H NMR; details: D2O, pH* 7.2 ± 0.1, 310 K
Description: Supplementary Table 4: Binding constants for formation of 9-EtG adducts of complexes 1-4 determined by 1H NMR. The experiments were performed in D2O, pH* 7.2 ± 0.1 and 310 K. Equilibrium was reached by the time the first 1H NMR spectrum was recorded (< 10 min). […]
DNA is believed to be the main target for [(bip)Ru(en)Cl]+ (8). Due to the structural similarity of the complexes 1-5 with complex 8, their binding to DNA was […]
Interaction with nucleobases
Initially, model nucleobases, 9-ethylguanine and 9-methyladenine were reacted with complexes 1-4 in D2O, 310 K and pH* 7.2 ± 0.1. The binding of the complexes to 9-EtG or 9-MeA was monitored by 1H-NMR spectroscopy. Peaks for the 9-EtG adducts were observed by the time the first spectrum was recorded (< 5 min after mixing), […]
equilibrium was reached rapidly. The binding constants for formation of 9-EtG adducts determined by NMR were between 60 and 106 mM-1 (Supplementary Table 4). These values are in the same range as that from the ethylenediamine complex [(bip)Ru(en)Cl]+ (K9-EtG= 60.3 mM-1),2 which also binds strongly to DNA.3, 4 The high resolution mass spectrum confirmed the formation of [(η6-arene)Ru(XEn)(9-EtG)]+ (Supplementary Table 5). The interaction of complexes 1-4 with 9-MeA was also investigated, but no reaction was detected by 1H-NMR.
It is well established that N7 of guanine is the preferred nucleotide binding site for many transition metals ions. 2-8 Furthermore, strong and selective binding to N7 of 9-EtG, has been observed for [(η6-arene)Ru(en)Cl]+.3, 4 A pH* titration of […]

[4] = tested on: A2780 cells; assay: Cellular membrane integrity (CytoPainter flow cytometry); type: cell-based, human; details: A2780, complex 2 alone or with 2 mM sodium formate, 24 h
Description: Flow cytometry analysis of cellular membrane integrity of A2780 cells caused by exposure to complex 2 and sodium formate were carried out using the CytoPainter assay (Abcam) according to the manufacturer’s instructions. […] Cells were harvested using trypsin and stained in the dark using CytoPainter Red (Ex/Em 583/603 nm), which reacts with cell surface amines in compromised membranes. After staining, cell pellets were analysed in a Becton Dickinson FACScan Flow Cytometer.

[5] = pKa* of aqua adducts of the complexes; type: physicochemical; details: pKa value determined in deuterated solvent
Text: Table 1 pKa* values for aqua adducts of catalysts 1–4 (and 8 for comparison) and turnover frequencies for transfer hydrogenation of NAD^+ using formate. | column: pKa*

[6] = Transfer hydrogenation of NAD+ to 1,4-NADH with formate, followed by 1H NMR; details: NAD+ 2 mol equiv, formate 25 mol equiv, 310 K, pH* 7.2
Description: Complexes 1–7 were dissolved in MeOH-d4/D2O (5:1 v/v, 1.4 mM, 4 ml). Solutions of sodium formate (35 mM, 4 ml) and NAD^+ in D2O (2.8 mM, 2 ml) were also prepared and incubated at 310 K. In a typical experiment, 200-μl aliquots of each solution were added to a 5-mm NMR tube and the pH* adjusted to 7.2±0.1 (total volume 0.635 ml, final concentrations: Ru complex 0.44 mM; NAD^+ 0.88 mM; formate 11.02 mM; molar ratio 1:2:25). ^1H NMR spectra were recorded at 310 K every 162 s until the completion of the reaction.
Molar ratios of NAD^+ and NADH were determined by integrating the peaks at 9.33 and 6.96 p.p.m. (NAD^+ and 1,4-NADH, respectively). The turnover number for the reaction was calculated as follows: […]
where In is the integral of the signal at n p.p.m. and [NAD^+]0 is the concentration of NAD^+ at the start of the reaction.

## Cc1ccc(C(C)C)cc1.Cc1ccc(S(=O)(=O)[N-]CCN)cc1.[Cl-].[Ru+2] [Complex 2, [(p-cym)Ru(TsEn)Cl]]
[1]; MRC5, formate 0 mM
  IC50: 48.5 ± 0.4 µM
[1]; ratio MRC5 fibroblasts / A2780, no formate
  selectivity factor: 3.6±0.2
[2]
  induction of apoptosis: no population of cells in either of these two stages of apoptosis was detected
[3]
  Binding constant for formation of 9-EtG adducts: 104.9 ± 3.9 mM⁻¹
[4]
  cellular membrane integrity, FL2 fluorescence of CytoPainter red: low fluorescence
[5]
  pKa*: 9.78±0.06
[6]; 23% MeOH-d4/77% D2O
  TOF D2O/MeOH-d4: 2.88 ± 0.06 h⁻¹
[6]; D2O
  TOF D2O: 1.58 ± 0.04 h⁻¹
